Source: patent EP0248231B1, “Pharmacologically active peptides” (Brantl, Victor, Dr. med., Dipl.-Chem., priority 1986, dated 1993)
Residues, ends and D or L forms follow the SMILES beside them.

Each compound was assayed on plexus myentericus/ Längsmuskel-Präparat des Meerschweinchenileums (GPI) (assay: Inhibition of electrically induced contraction of the myenteric plexus/longitudinal muscle preparation of guinea pig ileum (GPI)). Conditions: means of 4-6 determinations; standard deviation below 14 %; read-out: GPI: Konzentration, die notwendig ist, die elektrisch induzierte Kontraktion des Meerschweinchen-Darm-Präparates (GPI) um 50 % zu hemmen (IC₅₀-Wert).
Format: cell-based
Description: Die beiden Substanzen zeigen spezifische opiatartige Wirkungen am elektrisch stimulierten plexus myentericus/ Längsmuskel-Präparat des Meerschweinchenileums (GPI), Methode: Schulz und Goldstein, J. Pharmacol. Exptl. Ther. 183, 400, 1972. Die Ergebnisse sind in Tabelle 1 aufgeführt.
Tabelle 1. Opiatartige Wirkungen zweier erfindungsgemäßer Peptide; die Zahlen geben diejenige Konzentration (µM) an, die notwendig ist, die elektrisch induzierte Kontraktion des Meerschweinchen-Darm-Präparates (GPI) um 50 % zu hemmen (IC₅₀-Wert). Die Zahlen sind Mittelwerte aus 4-6 Bestimmungen; die Standardabweichung von den Mittelwerten ist kleiner als 14 %. Die Hemmungen des GPI sind mit dem spezifischen Opioid-Antagonisten Naloxon aufhebbar bzw. bei Vorbehandlung blockierbar. (Endkonzentration des Naloxons im Organbad 0,5 µM).
`Oc1ccc2c3c1O[C@H]1[C@@H](O)C=C[C@H]4[C@@H](C2)NCC[C@@]341` [Normorphin] was tested, and the IC50 was 0.1 µM.
Work on `C[C@@H](O)[C@H](NC(=O)[C@H](Cc1c[nH]c2ccccc12)NC(=O)[C@@H]1CCCN1C(=O)[C@@H](N)Cc1ccc(O)cc1)C(=O)O` [Tyr-Pro-Trp-Thr, H-Tyr-Pro-Trp-Thr-OH] (H-YPWT-OH) yielded an IC50 of 45.2 µM.
For “H-YPWTQ-OH [Tyr-Pro-Trp-Thr-Gln, H-Tyr-Pro-Trp-Thr-Gln-OH]”, the IC50 was 46.1 µM.
